Measured values taken from patent US20170327509A1, “TWO-PHOTON ABSORBING FLUOROPHORES AND METHOD FOR CELLULAR IMAGING USING THE SAME” (POSTECH ACADEMY-INDUSTRY FOUNDATION, priority 2014, published 2017).
Where two headings read alike, the source gives them in different places.

Key:
[1] = Absorbance spectra / molar extinction coefficients at the maximum absorption wavelength; type: physicochemical; conditions: water (containing 1% DMSO), acetonitrile, and dichloromethane; FIG. 33
Description: Specifically, to confirm the absorbing properties of two-photon absorbing fluorophores, the inventors measured absorbance spectra for Compounds 1 to 9 at the concentration of 10 μM in HEPES buffer (containing 1% DMSO, pH 7.4) and water (containing 1% DMSO), contained in quartz cells with a light path length of 1 cm, and the results are respectively shown in the left and right graphs of FIG. 2. Absorbance spectra for Compounds 1 to 9 at the concentration of 10 μM in ethanol and acetonitrile were measured, and the results are respectively shown in the left and right graphs of FIG. 3. Absorbance spectra for Compounds 1 to 9 at the concentration of 10 μM in dimethylformamide and dichloromethane were measured, and the results are respectively shown in the left and right graphs of FIG. 4. Absorbance spectra for Compounds 1 to 9 at the concentration of 10 μM in cyclohexane were measured, and the result is shown in FIG. 5. Absorbance spectra for Compounds 10 to 12 at the concentration of 10 μM in water (a, containing 1% DMSO), acetonitrile (b), and dichloromethane (c) were measured, and the results are shown in FIG. 31. The absorbance spectra were measured using a HP 8453 UV/Vis spectrophotometer. […]

[2] = Fluorescence quantum yield (reference rhodamine B); type: physicochemical; conditions: water (containing 1% DMSO); FIGS. 15 and 34
Description: Further, fluorescence quantum yields of Compounds 1 to 9 in dichloromethane, acetonitrile, and water (containing 1% DMSO) were measured, and the results are shown in FIG. 15. Fluorescence quantum yields of Compounds 10 to 12 in dichloromethane, acetonitrile, and water (containing 1% DMSO) were measured, and the results are shown in FIG. 34. As a reference compound, rhodamine B was used (fluorescence quantum yield, ΦF=0.6, measured in ethanol).

[3] = Two-photon absorption cross-section by two-photon induced fluorescence method; type: physicochemical; conditions: water (containing 1% DMSO); excitation 800 nm, 820 nm, 840 nm; FIG. 35
From the text: Specifically, to confirm the fluorescence properties of the two-photon absorbing fluorophores under two-photon excitation, the inventors measured fluorescence spectra by two-photon excitation using a titanium:sapphire oscillator (Ti:sapphire oscillator), which was pumped by a frequency-doubled neodimium:yttrium orthovanadate laser (Nd:YVO4 laser; Verdi, Coherent) with an output power of 5.0 W. Output pulse energy was 40 nJ, and repetition rate was 380 kHz.
In addition, two-photon absorption cross-section values of each of Compounds 1 and 5 to 7 in dichloromethane solution, acetonitrile solution, and water (containing 1% DMSO) were measured, and the results are shown in FIGS. 28 and 29. Two-photon absorption cross-section values of each of Compounds 10 to 12 in a dichloromethane solution, an acetonitrile solution, and water (containing 1% DMSO) were measured, and the results are shown in FIG. 35. As a comparative compound, rhodamine B generally used as a fluorescent probe was used (two-photon absorption cross-section values, GM=300 (740 nm), 470 (760 nm) and 540 (780 nm), measured in an ethanol solution). Two-photon absorption cross-section values were measured by a two-photon induced fluorescence method (Fischer, A. et al. Applied Optics 1995, 34, 1989), 1 GM refers to 10^−50 cm^4 s photon^−1 molecule^−1.

[4] = Fluorescence spectra / fluorescence intensities in solution; type: physicochemical; conditions: 1 μM in water (containing 1% DMSO); excitation at the maximum absorption wavelength; FIG. 40
Description: 10. […] 11. […] 12. […] 32. All fluorescence spectra were measured at the […] (FIG. 14). The fluorescence spectra were measured using a Photon Technical International Fluorescence System.
13(a). […] 13 (b, left) and FIG. 13 (b, right). Referring to FIGS. 9 and 13, it can be confirmed that fluorescence intensities of the two-photon absorbing fluorophores (particularly, Compounds 2 to 8) of the present invention in HEPES buffer (containing 1% DMSO, pH 7.4) and water (containing 1% DMSO) are higher than those of the conventional acedan (Compound 1).
In addition, to compare the fluorescence intensities of the compounds in aqueous solution according to a structural change, fluorescence intensities of Compounds 1, 5, and 13 to 18 at the concentration of 1 μM in water (containing 1% DMSO) were compared, and the results are shown in FIG. 40. The fluorescence intensities were measured through excitation of each compound at the maximum absorption wavelength. […] It can be confirmed that, as the degrees of hydrogen bonding of water molecule to the nitrogen atom in Compounds 13 to 17 are reduced, the fluorescence intensities increase.

[5] = reference compound; measured in ethanol; cited from earlier work
[6] = comparative compound, ethanol solution, cited from earlier work

SMILES: CC(=O)c1ccc2cc(N3C4CCC3CC4)ccc2c1
- melting point: 118 to 120 °C

SMILES: CC(=O)c1ccc2cc(NC(C)C)ccc2c1 [Compound 3, 1-(6-(isopropylamino)naphthalen-2-yl)ethanone]
- melting point: 112 to 114 °C

SMILES: CNc1ccc2cc(C(C)=O)ccc2c1 [Compound 4, 1-(6-(methylamino)naphthalen-2-yl)ethanone]
- melting point: 182 °C

SMILES: CC(=O)c1ccc2cc(NC3CCC(O)CC3)ccc2c1 (centres unmarked) [Compound 5, 1-(6-(4-hydroxycyclohexylamino)naphthalen-2-yl)ethanone]
- melting point: 186 to 188 °C

SMILES: CC(=O)c1ccc2cc(N3CCOCC3)ccc2c1 [Compound 8, 1-(6-morpholinonaphthalen-2-yl)ethanone]
- melting point: 149 to 151 °C

SMILES: CC(=O)c1ccc2cc(N(C)C3CCC(O)CC3)ccc2c1 (centres unmarked) [Compound 9, 1-(6-((4-hydroxycyclohexyl)(methyl)amino)naphthalen-2-yl)ethanone]
- melting point: 192 to 194 °C

SMILES: O=C1c2cccc3c(NC4CCC(O)CC4)ccc(c23)C(=O)N1CCO (centres unmarked) [Compound 10, 6-(4-hydroxycyclohexylamino)-2-(2-hydroxyethyl)-1H-benzo[de]isoquinoline-1,3(2H)-dione]
- molar extinction coefficients [1]: higher than those of the conventional Compound 11 (Formula 11) and Compound 12 (Formula 12)
- fluorescence quantum yield [2]: higher than those of the conventional Compounds 11 and 12
- two-photon absorption cross-section value [3]: higher than those of the conventional Compounds 11 and 12

SMILES: CC(=O)c1ccc2cc(N3CCCC3)ccc2c1 [Compound 18]
- fluorescence intensities [4]: increase of fluorescence intensity

SMILES: CCN(CC)c1ccc2c(-c3ccccc3C(=O)O)c3ccc(=[N+](CC)CC)cc-3oc2c1.[Cl-] [rhodamine B]
- fluorescence quantum yield, ΦF [5]: 0.6
- two-photon absorption cross-section value ([6]; 740 nm): 300 GM
- two-photon absorption cross-section value ([6]; 760 nm): 470 GM
- two-photon absorption cross-section value ([6]; 780 nm): 540 GM
